One data set deals with BW25113 E. coli strain. Description: Minimum inhibitory concentration (MIC) assay of furfural in MOPS minimal media. Type of data set: cell-based. Particulars: Escherichia coli, n=3, read-out: MIC (first concentration of furfural that inhibited bacterial growth). How it is done: In one exemplary method, assays were performed to determine minimum inhibitory concentration (MIC) of ethanol, furfural and acetate for BW25113 and MG1655 E. coli strains. FIG. 16 represents a histogram plot of illustrating tolerance differences of furfural in BW25113 and MG1655 E. coli strains. Cells from each strain were inoculated from the same optical density into a total of 100 μL of varying furfural concentrations in a minimal media, for example using MOPS. Cell growth in the first 24 hr or 48 hr in the presence of furfural was monitored. The left bar in each pair for each indicated strain represents a first concentration of furfural that inhibited bacterial growth after 24 hr. The right bar for each strain represents the first concentration that inhibited growth after 48 hr. The MIC reads were the average of triplicates (n=3), and error bars represent standard deviation. […] Thus, this difference in strains led to further investigation into the difference between these strains. ArecA signifies strains where the gene has been knocked out as previously described.

For another data set, the system named is ADH. Particulars: 0.12 g/L furfural; cited from earlier work.
For data set [1], the system named is BW25113 araC::FRT-kan clone with overexpression of lpcA gene. Description: Cell growth (OD600) in MOPS minimal media with furfural, araC deletion plus lpcA overexpression. Type of data set: cell-based, E. coli. The conditions noted are these: furfural 1 g/L, araC deletion and lpcA overexpression. How it is done:
In other exemplary methods, tolerance and expression of LPS was restored in a microorganism. FIG. 19 represents an example of restoration of tolerance and LPS expression in BW25113 ArecA clone. The indicated cells were grown in MOPS minimal media supplemented with glucose as a carbon source. Furfural was added to the media at the concentration of 1 g/L. Arabinose was added at 10 mM where indicated to gauge effect of AraC binding. The BW25113 araC::FRT-kan clone corresponds to JW0063, a BW25113 araC knockout mutant ordered from the Keio Collection directly. pBTL-1 represented the blank vector, and pLPCA referred to lpcA gene overexpression. Consistent with the Examples above, overexpression of lpcA gene increased cell growth (OD600 of 0.1 vs. 0.05) in the presence of furfural. Addition of Arabinose to the lpcA gene overexpression cells could further enhance the effect (OD600 of 0.3). […] To analyze the LPS level in the cells indicated in FIG. 19, LPS are extracted from the cells grown to exponential phase. Loading of LPS for the protein gel is normalized to the cell number. The gel is stained to visualize LPS protein bands after desired separation is obtained.
BW25113, MG1655, and derivatives were used where indicated. JW0063, an araC mutant of BW25113 was obtained from the Coli Genetic Stock Center (Yale). Overnight bacterial cultures were grown in Luria-Bertani medium with shaking. […]

Data set [2] deals with BW25113 ArecA cells transformed with the blank pBTL-1 vector. Type of data set: cell-based, E. coli. How it is done:
(§1) FIGS. 17A-17B represent methods of identification of a gene related to restoring tolerance. Multiple genome-wide SCALE selection was performed in the presence of ethanol, furfural and acetate respectively. The data set obtained for each compound was compared to the others. Alleles enriched in all cases were identified. […] To restore tolerance, overexpression of identified genes in bacterial cells was performed. For example, lpcA ORF was cloned into the pBTL-1 vector. BW25113 ArecA cells transformed with the blank pBTL-1 vector were used as a control. BW25113 ArecA cells overexpressing lpcA gene were referred to as pLPCA. Cells were inoculated at a standard cell density into MOPS minimal media, supplemented with furfural, acetate or ethanol. After 24 hours, growth of the cells was analyzed.
(§2) The indicated cells were grown in MOPS minimal media supplemented with glucose as a carbon source. Furfural was added to the media at the concentration of 1 g/L. Arabinose was added at 10 mM where indicated to gauge effect of AraC binding. The BW25113 araC::FRT-kan clone corresponds to JW0063, a BW25113 araC knockout mutant ordered from the Keio Collection directly. pBTL-1 represented the blank vector, and pLPCA referred to lpcA gene overexpression. […] To analyze the LPS level in the cells indicated in FIG. 19, LPS are extracted from the cells grown to exponential phase. Loading of LPS for the protein gel is normalized to the cell number. The gel is stained to visualize LPS protein bands after desired separation is obtained.
(§3) BW25113, MG1655, and derivatives were used where indicated. JW0063, an araC mutant of BW25113 was obtained from the Coli Genetic Stock Center (Yale). Overnight bacterial cultures were grown in Luria-Bertani medium with shaking. MOPS minimal medium (previously presented) with 0.2% glucose as a carbon source, was used for all seed cultures and growth studies. Seed cultures were inoculated at 2 v/v % from an overnight culture and were grown to mid-exponential phase. Growth cultures were inoculated with 10 v/v % seed cultures of an OD600 of 0.195-0.200 for an initial optical density of ˜0.02. Carbenicillin and kanamycin were used where appropriate at 100 μg/ml and 30 μg/ml, respectively. The pBTL-1 vector (previously described) was used as the control blank vector for all growth studies. Genome-wide furfural selection

For data set [3], the system named is BW25113 ArecA cells overexpressing lpcA gene (pLPCA). It is filed as cell-based, E. coli. Particulars: for OD600 (cell growth in the presence of furfural): furfural 1 g/L, lpcA overexpression, FIG. 19. How it is done:
as §1, §2, §3

Data set [4] deals with aldehyde dehydrogenase (A1DH; EC 1.2.1.5). The conditions noted are these: 0.12 g/L furfural; cited from earlier work.
The conditions of data set [5]: furfural vs. furfuryl alcohol; cited from earlier work.

Each structure is given as a SMILES string. Converted amounts (≈) assume the structure as drawn. Read-outs that look alike come from different tables or passages of the source.

`O=Cc1ccco1` [furfural, furan-2-carbaldehyde]: the MIC in the data set with BW25113 E. coli strain (BW25113, after 24 hr) came to 500 µg/mL (≈ 5.2 mM); in the data set on BW25113 E. coli strain (BW25113, after 48 hr) it was 1200 µg/mL (≈ 12.5 mM). Moreover, the activity inhibited with ADH is 60%. Also, the “OD600 (cell growth in the presence of furfural)” value was 0.5 in data set [1] (absence of Arabinose); 1.0 in data set [1] (presence of Arabinose); 0.05 in data set [2] (furfural 1 g/L, blank vector pBTL-1, no Arabinose, FIG. 19); 0.3 in data set [3] (Arabinose 10 mM); 0.1 in data set [3] (no Arabinose). Besides, the “OD600 at 24 hr” value is “about 0.2” in data set [2] (control cells, 1 g/L of furfural) and “about 1.2” in data set [3] (pLPCA cells, 1 g/L of furfural). For the same compound, the “improvement of final optical density by pLPCA in BW25113” value in data set [3] (furfural 1 g/l) is listed as 252±8%. In addition, in data set [4], the activity reduction entry was “more than 80%”. In addition, the “toxicity on a concentration basis” value in data set [5] is on record as approximately 2 g/L.

(Values after patent US20130217132A1, “METHODS, COMPOSITIONS AND USE FOR ENHANCING CHEMICAL TOLERANCE BY MICROORGANISMS” (priority 2009, published 2013).)
